Assay results: ChEMBL document CHEMBL3886883, “Cyclic amines” (2016)

Target: T1, P2X purinoceptor 7 (Homo sapiens, UniProt Q99572)
T1 sequence (Q99572 whole entry): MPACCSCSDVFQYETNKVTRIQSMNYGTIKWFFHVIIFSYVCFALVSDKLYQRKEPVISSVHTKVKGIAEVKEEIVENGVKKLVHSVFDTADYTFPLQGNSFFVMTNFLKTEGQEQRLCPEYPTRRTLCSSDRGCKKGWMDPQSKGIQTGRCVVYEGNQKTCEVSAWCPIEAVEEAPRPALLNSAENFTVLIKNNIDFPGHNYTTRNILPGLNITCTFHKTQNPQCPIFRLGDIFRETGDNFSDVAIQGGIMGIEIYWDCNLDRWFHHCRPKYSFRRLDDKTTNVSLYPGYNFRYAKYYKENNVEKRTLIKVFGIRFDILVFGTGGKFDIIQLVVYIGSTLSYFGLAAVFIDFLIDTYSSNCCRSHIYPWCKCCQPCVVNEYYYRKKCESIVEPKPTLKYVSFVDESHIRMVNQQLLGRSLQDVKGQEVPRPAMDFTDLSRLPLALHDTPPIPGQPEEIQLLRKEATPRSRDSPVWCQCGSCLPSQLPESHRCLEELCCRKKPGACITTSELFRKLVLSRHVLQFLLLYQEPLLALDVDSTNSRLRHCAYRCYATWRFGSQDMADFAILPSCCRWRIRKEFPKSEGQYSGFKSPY
Experiment: Fluorescent Imaging Plate Reader (FLIPR) Assay: Briefly, 293-human or mouse P2X7 stable cells were incubated in sucrose buffer, pH 7.4 [KCl (5 mM), NaH2PO42H2O (9.6 mM), HEPES (25 mM), sucrose (280 mM), glucose (5 mM), CaCl2 (0.5 mM), and probenecid (0.1425 g in 3 mL 1N NaOH was added for 500 mL solution)] in 384-well plates. 93-rat P2X7 stable cells were incubated in HHPB (pH 7.4) [consisting of Hank's BSS (1X); HEPES (pH 7.4) (20 mM) (Sigma); probenecid (0.710 g/5 mL 1N NaOH) (Sigma); and BSA (0.05%) (Roche) which was added after the pH had been adjusted] in 384-well plates. Fluo-4 NW dye mix (Molecular Probes, Inc., Eugene, Oreg., USA) was prepared in buffer (see manufacturer's instructions). Cell plates were removed from the 37° C. incubator, the media discarded and then 30 μL of dye was added to each well. Plates were placed in the 37° C., non-CO2 incubator for 30 minutes and then room temperature for 30 minutes. Two sets of drug plates were prepared: A) Mixtures of compound plus agonist were prepared as follows, in order to determine close response: BzATP: 11 point ½ log, diluted in buffer, starting from 1 mM. Testing compounds: 11 point ½ log, diluted in 2% DMSO buffer starting from 10 μM. B) Agonist only mixture was prepared with BzATP at a single concentration in buffer (concentration determined by dose response). Compound mixtures (A) were added to assay plates containing cells and placed at room temperature for 30 minutes, then BzATP (B) was added. Fluorescence was read using the Tetra FLIPR® (Molecular Devices, Inc., Sunnyvale, Calif., USA) and IC50 values were calculated by standard methods to determine antagonist activity.
Type: cell-based

SMILES	IC50 [nM]
COc1ccc(C(CNC(=O)c2cc(C)ccc2Cl)N2CCCCC2)cc1 (stereo not drawn)	650
Cc1ccc(Cl)c(C(=O)NCC(c2ccc(F)cc2)N2CCOCC2)c1 (stereo not drawn)	21
COc1ccc(C(CNC(=O)c2cc(C)ccc2Cl)N2CCOCC2)cc1 (stereo not drawn)	59
